Eleven molecules from patent publication US20230365590A1, “BIPHENYL COMPOUND AS IMMUNOMODULATOR, PREPARATION METHOD THEREFOR AND APPLICATION THEREOF” (SHENZHEN CHIPSCREEN BIOSCIENCES CO., LTD., priority 2020, published 2023) can be followed below.

SMILES strings stand for the structures.

This assay concerns PD-1/PD-L1 mediated inhibitory signal to T cell activation (CHO-PD-L1-CD3L cells and Jurkat-PD-1-NFAT cells). In words: Blocking of PD-1/PD-L1 mediated inhibitory signal to T cell activation at cell level (NFAT luciferase reporter, co-culture). The note with it: Homo sapiens, CHO-PD-L1-CD3L / Jurkat-PD-1-NFAT co-culture, 6 h. The assay is classed as cell-based. Here is the method:
In order to test the effect of interaction between PD-1 and PD-L1 on T cell activation signal in immune response, CHO-PD-L1-CD3L cells stably expressing human PD-L1 molecule and anti-CD3 single-chain antibody (ScFv) and Jurkat-PD-1-NFAT cells stably expressing human PD-1 molecule and NFAT reporter gene were constructed. When two kinds of cells are incubated together, anti-CD3 ScFv on the CHO cell surface and membrane CD3 molecule of Jurkat cell combine to transmit an activation signal into Jurkat cell. However, due to the binding of PD-L1 on the CHO cell surface and PD-1 molecule on the Jurkat cell surface at the same time, a signal for inhibiting activation is transmitted inward, so that luciferase reporter gene cannot be expressed. When an immunocheckpoint antibody or small-molecule inhibitor is added, the binding of PD-1 and PD-L1 is blocked, the NFAT pathway activated by CD3 ScFv antibody and CD3 cross-linking mediated T cell activation signal is no longer affected by the inhibitory signal, and the downstream luciferase reporter gene starts to be expressed. Chemiluminescence signals proportional to reporter gene activation can be detected by adding a catalytic substrate.
CHO-PD-L1-CD3L cells expressing human PD-L1 molecule and anti-CD3 single-chain antibody (ScFv) and Jurkat-PD-1-NFAT cells stably expressing human PD-1 molecule and NFAT reporter gene were all independently constructed and presented by Dr. Chen Bo (KeyMed Biosciences (Chengdu) Co., Ltd. Puromycin (Cat # 540411) and Hygromycin B (Cat # V900372) for stable culture of transfected cells were purchased from Sigma, PMA (Cat # P1585) was purchased from Sigma, and the anti human PD-L1 antibody (Cat # GMP-A066) was purchased from Novoprotein Company. The Luciferase substrate solution (Cat # E6485) and the luciferase-specific cell lysate 5×(Cat # E1531) were purchased from Promega company. The fluorescence detector Tecan (Spark 10M) was purchased from Tecan Company in Switzerland.
Main Process of Experiment • (1) On the day before the experiment, 100 μL of CHO-PD-L1-CD3L cells (about 4×10^4 cells/well) were inoculated at 37° C. overnight in a 96-well cell culture plate, and the culture medium was DMEM/F12 containing 10% FBS, 8 μg/mL Puromycin and 200 μg/mL Hygromycin B. • (2) The test compound was diluted with 0.1% PBST to obtain solutions with different concentration gradients, and then added into 96-well plates and incubated for 30 min in advance. The RPMI 1640 complete medium containing 10% FBS, 8 μg/mL Puromycin and 200 μg/mL Hygromycin B was used to adjust the Jurkat-PD-1-NFAT cell count to 2×10^5 cells/mL, and 100 ng/mL PMA (10 mg/mL storage solution prepared with DMSO) was added to amplify the T cell activation signal. 100 μL of the Jurkat-PD-1-NFAT cells were added into each well of the 96-well plates for co-culture. • (3) During the test reaction, control groups were set, including the solvent control without adding the test compound and the positive control with the addition of the […] in the experimental system. All tests were conducted by use of multiple holes. • (4) Incubation was continued at 37° C. for 6 h, 40 μL of 5×cell lysate was added directly, the solution was mixed well and placed at room temperature for 10 min to completely lyse cells. 50 μL of lysed cell solution was transferred to a fluorescence detection plate, 30 μL of luciferase substrate solution was then added, and the chemiluminescence detection program was immediately selected on the fluorescence detector for determination. • (5) Calculation formula of the inhibition rate of the test compound against T cell activation signal at the cell level: The inhibition rate against T cell activation signal (%)=(original chemiluminescence value of the test hole−solvent control)/(the highest original chemiluminescence value determined in the compound test hole−solvent control)×100%. […]
On the technique in general: A reporter such as luciferase makes a cellular process visible.
The term EC50 denotes the concentration needed to bring the measured effect to its halfway point. Low readings indicate higher potency in that assay, high ones lower potency in that assay. `COCC12CCC(CCCN3CCc4c(nc(C(=O)Nc5cccc(-c6cccc(NC(=O)c7nc8c(n7C)CCN(CCC79CCC(C(=O)O)(CC7)C9)C8)c6C)c5Cl)n4C)C3)(CC1)C2` [Compound I-1, 4-(2-(2-((2′-chloro-3′-(5-(3-(4-(methoxymethyl)bicyclo[2. 2.1]heptan-1-yl)propyl)-1-methyl-4,5,6,7-tetrahydro-1H-imidazo[4,5-c]pyridine-2-carboxamido) -2-methyl-[1,1′-biphenyl]-3-yl)carbamoyl)-1-methyl-1,4,6,7-tetrahydro-5H-imidazo[4,5-c]pyridin-5-yl)ethyl)bicyclo[2.2.1]heptane-1-carboxylic acid] returned an EC50 of 33.9 nM.
Under `COCC12CCC(CCCN3CCc4c(nc(C(=O)Nc5cccc(-c6cccc(NC(=O)c7nc8c(n7C)CCN(CCC79CCC(C(=O)O)(CC7)C9)C8)c6Cl)c5C)n4C)C3)(CC1)C2` [Compound I-2, 4-(2-(2-((2-chloro-3′-(5-(3-(4-(methoxymethyl)bicyclo[2.2.1]heptan-1-yl)propyl)-1-methyl-4,5,6,7-tetrahydro-1H-imidazo[4,5-c]pyridine-2-carboxamido)-2′-methyl-[1,1′-biphenyl]-3-yl)carbamoyl)-1-methyl-1,4,6,7-tetrahydro-5H-imidazo[4,5-c]pyridin-5-yl)ethyl)bicyclo[2.2.1]heptane-1-carboxylic acid] stands 18.1 nM; under `CCOCC12CCC(CCN3CCc4c(nc(C(=O)Nc5cccc(-c6cccc(NC(=O)c7nc8c(n7C)CCN(CCC79CCC(C(=O)O)(CC7)C9)C8)c6C)c5Cl)n4C)C3)(CC1)C2` [Compound I-3, 4-(2-(2-((2′-chloro-3′-(5-(2-(4-(ethoxymethyl)bicyclo[2.2.1]heptan-1-yl)ethyl)-1-methyl-4,5 ,6,7-tetrahydro-1H-imidazo[4,5-c]pyridine-2-carboxamido)-2-methyl-[1,1′-biphenyl]-3-yl)carbamoyl)-1-methyl-1,4,6,7-tetrahydro-5H-imidazo[4,5-c]pyridin-5-yl)ethyl)bicyclo[2.2.1]heptane-1-carboxylic acid], 17 nM; under `COCC12CCC(CCN3CCc4c(nc(C(=O)Nc5cccc(-c6cccc(NC(=O)c7nc8c(n7C)CCN(CCC79CCC(C(=O)O)(CC7)C9)C8)c6C)c5Cl)n4C)C3)(CC1)C2` [Compound I-4, 4-(2-(2-((2′-chloro-3′-(5-(2-(4-(methoxymethyl)bicyclo[2. 2.1]heptan-1-yl)ethyl)-1-methyl-4,5,6,7-tetrahydro-1H-imidazo[4,5-c]pyridine-2-carboxamido)-2-methyl-[1 ,1′-biphenyl]-3-yl)carbamoyl)-1-methyl-1,4,6,7-tetrahydro-5H-imidazo[4,5-c]pyridin-5-yl)ethyl)bicyclo[2.2.1]heptane-1-carboxylic acid], 28.3 nM.
Then `COCC12CCC(CCN3CCc4c(nc(C(=O)Nc5cccc(-c6cccc(NC(=O)c7nc8c(n7C)CCN(CCC79CCC(C(=O)O)(CC7)C9)C8)c6Cl)c5C)n4C)C3)(CC1)C2` [Compound I-5, 4-(2-(2-((2-chloro-3′-(5-(2-(4-(methoxymethyl)bicyclo[2.2.1]heptan-1-yl)ethyl)-1-methyl-4,5,6,7-tetrahydro-1H-imidazo[4,5-c]pyridine-2-carboxamido)-2′-methyl-[1,1′-biphenyl]-3-yl)carbamoyl)-1-methyl-1,4,6,7-tetrahydro-5H-imidazo [4,5-c]pyridin-5-yl)ethyl)bicyclo[2.2.1]heptane-1-carboxylic acid], with 26.7 nM; and `COCC12CCC(CCN3CCc4c(nc(C(=O)Nc5cccc(-c6cccc(NC(=O)c7nc8c(n7C)CCN(CCC79CCC(C(=O)O)(CC7)C9)C8)c6Cl)c5Cl)n4C)C3)(CC1)C2` [Compound I-6, 4-(2-(2-((2,2′-dichloro-3′-(5-(2-(4-(methoxymethyl)bicyclo[2.2.1]heptan-1-yl)ethyl)-1-methyl-4,5,6,7-tetrahydro-1H-imidazo[4,5-c]pyridine-2-carboxamido)-[1, 1′-biphenyl]-3-yl)carbamoyl)-1-methyl-1,4,6,7-tetrahydro-5H-imidazo[4,5-c]pyridin-5-yl)ethyl)bicyclo[2.2.1]heptane-1-carboxylic acid], with 15.8 nM; and `Cn1c(C(=O)Nc2cccc(-c3cccc(NC(=O)c4nc5c(n4C)CCN(CCC46CCC(C(=O)O)(CC4)C6)C5)c3Cl)c2Cl)nc2c1CCN(CCC13CCC(COC(F)F)(CC1)C3)C2` [Compound I-7, 4-(2-(2-((2,2′-dichloro-3′-(5-(2-(4-((difluoromethoxy)methyl)bicyclo[2.2.1]heptan-1-yl)ethyl)-1-methyl-4,5,6,7-tetrahydro-1H-imidazo[4,5-c]pyridine-2-carboxamido)-[1,1′-biphenyl]-3-yl)carbamoyl)-1-methyl-1,4,6,7-tetrahydro-5H-imidazo[4,5-c]pyridin-5-yl)ethyl)bicyclo[2.2.1]heptane-1-carboxylic acid], with 39.2 nM.
Molecule `COCC12CCC(CN3CCc4c(nc(C(=O)Nc5cccc(-c6cccc(NC(=O)c7nc8c(n7C)CCN(CCC79CCC(C(=O)O)(CC7)C9)C8)c6Cl)c5Cl)n4C)C3)(CC1)C2` [Compound I-8, 4-(2-(2-((2,2′-dichloro-3′-(5-((4-(methoxymethyl)bicyclo[2.2.1]heptan-1-yl)methyl)-1-methyl-4,5,6,7-tetrahydro-1H-imidazo[4,5-c]pyridine-2-carboxamido)-[1, 1′-biphenyl]-3-yl)carbamoyl)-1-methyl-1,4,6,7-tetrahydro-5H-imidazo[4,5-c]pyridin-5-yl)ethyl)bicyclo[2.2.1]heptane-1-carboxylic acid] returned an EC50 of 30.3 nM.
For the molecule `COCC12CCC(CCN3CCc4c(nc(C(=O)Nc5cccc(-c6cccc(NC(=O)c7nc8c(n7C)CCN(CCC79CCC(C(=O)O)(CC7)C9)C8)c6Cl)c5F)n4C)C3)(CC1)C2` [Compound I-9, 4-(2-(2-((2-chloro-2′-fluoro-3′-(5-(2-(4-(methoxymethyl)bicyclo[2.2.1]heptan-1-yl)ethyl)-1-methyl-4,5,6,7-tetrahydro-1H-imidazo [4,5-c]pyridine-2-carboxamido)-[1,1′-biphenyl]-3-yl)carbamoyl)-1-methyl-1,4,6,7-tetrahydro-5H-imidazo[4,5-c]pyridin-5-yl)ethyl)bicyclo[2.2.1]heptane-1-carboxylic acid], the EC50 was found to be 6.79 nM.
Then `Cn1c(C(=O)Nc2cccc(-c3cccc(NC(=O)c4nc5c(n4C)CCN(CCC46CCC(C(=O)O)(CC4)C6)C5)c3Cl)c2F)nc2c1CCN(CCC13CCC(COC(F)F)(CC1)C3)C2` [Compound I-10, 4-(2-(2-((2-chloro-3′-(5-(2-(4-((difluoromethoxy)methyl)bicyclo[2.2.1]heptan-1-yl)ethyl)-1-methyl-4,5,6,7-tetrahydro-1H-imidazo[4,5-c]pyridine-2-carboxamido)-2′-fluoro-[1,1′-biphenyl]-3-yl)carbamoyl)-1-methyl-1,4,6,7-tetrahydro-5H-imidazo[4,5-c]pyridin-5-yl)ethyl)bicyclo[2.2.1]heptane-1-carboxylic acid], with 35.5 nM; and `COCC12CCC(CCN3CCc4c(nc(C(=O)Nc5cccc(-c6cccc(NC(=O)c7nc8c(n7C)CCN(CCC79CCC(C(=O)O)(CC7)C9)C8)c6Cl)c5C#N)n4C)C3)(CC1)C2` [Compound I-11, 4-(2-(2-((2-chloro-2′-cyano-3′-(5-(2-(4-(methoxymethyl)bicyclo[2.2.1]heptan-1-yl)ethyl)-1-methyl-4,5,6,7-tetrahydro-1H-imidazo[4,5-c]pyridine-2-carboxamido)-[1,1′-biphenyl]-3-yl)carbamoyl)-1-methyl-1,4,6,7-tetrahydro-5H-imidazo[4,5-c]pyridin-5-yl)ethyl)bicyclo[2.2.1]heptane-1-carboxylic acid], with 26.3 nM.
